System: 945468-187-T-J2-PDC spheroids viability
Assay: Anticancer human tumor 945468-187-T-J2-PDC patient-derived rectal carcinoma cell line growth inhibition [PI3K]
Details: spheroids with HUVEC and MSC; for IC50: curve of first compound; for viability, T/C: stronger effect = lower value; active means viability on the fitted dose curve at most 10% of control; inactive means the rest
Procedure, shortened: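 Complex 3D spheroids (cancer cells + endothelial HUVEC + mesenchymal stem cells); drug pairs of targeted agent x inavolisib/alpelisib/duvelisib/copanlisib; half-log series from ~Cmax, max 10 microM if Cmax unknown; endpoint viability.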
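Further: spheroids exposed to compounds for seven days before reading.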

CNC(=O)c1ccc(N2C(=S)N(c3ccc(C#N)c(C(F)(F)F)c3)C(=O)C2(C)C)cc1F + CC(Nc1ncnc2nc[nH]c12)c1cc2cccc(Cl)c2c(=O)n1-c1ccccc1
inactive: viability, T/C (second compound 0.0316 µM, first compound 0.0316 µM) 111% | viability, T/C (second compound 0.0316 µM, first compound 0.1 µM) 93.6% | viability, T/C (second compound 0.0316 µM, first compound 0.316 µM) 96.3% | viability, T/C (second compound 0.0316 µM, first compound 1 µM) 85.3% | viability, T/C (second compound 0.0316 µM, first compound 3.16 µM) 85.1% | viability, T/C (second compound 0.0316 µM, first compound 10 µM) 75.7% | viability, T/C (second compound 0.1 µM, first compound 0.0316 µM) 92.6% | viability, T/C (second compound 0.1 µM, first compound 0.1 µM) 92.5% | viability, T/C (second compound 0.1 µM, first compound 0.316 µM) 91.1% | viability, T/C (second compound 0.1 µM, first compound 1 µM) 91% | viability, T/C (second compound 0.1 µM, first compound 3.16 µM) 106% | viability, T/C (second compound 0.1 µM, first compound 10 µM) 88.3% | viability, T/C (second compound 0.316 µM, first compound 0.0316 µM) 138% | viability, T/C (second compound 0.316 µM, first compound 0.1 µM) 100% | viability, T/C (second compound 0.316 µM, first compound 0.316 µM) 95.7% | viability, T/C (second compound 0.316 µM, first compound 1 µM) 111% | viability, T/C (second compound 0.316 µM, first compound 3.16 µM) 101% | viability, T/C (second compound 0.316 µM, first compound 10 µM) 89.5% | viability, T/C (second compound 1 µM, first compound 0.0316 µM) 95.5% | viability, T/C (second compound 1 µM, first compound 0.1 µM) 87% | viability, T/C (second compound 1 µM, first compound 0.316 µM) 100% | viability, T/C (second compound 1 µM, first compound 1 µM) 105% | viability, T/C (second compound 1 µM, first compound 3.16 µM) 104% | viability, T/C (second compound 1 µM, first compound 10 µM) 114% | viability, T/C (second compound 3.16 µM, first compound 0.0316 µM) 111% | viability, T/C (second compound 3.16 µM, first compound 0.1 µM) 93.9% | viability, T/C (second compound 3.16 µM, first compound 0.316 µM) 89.7% | viability, T/C (second compound 3.16 µM, first compound 1 µM) 106% | viability, T/C (second compound 3.16 µM, first compound 3.16 µM) 105% | viability, T/C (second compound 3.16 µM, first compound 10 µM) 93.3% | viability, T/C (second compound 10 µM, first compound 0.0316 µM) 89.4% | viability, T/C (second compound 10 µM, first compound 0.1 µM) 108% | viability, T/C (second compound 10 µM, first compound 0.316 µM) 101% | viability, T/C (second compound 10 µM, first compound 1 µM) 102% | viability, T/C (second compound 10 µM, first compound 3.16 µM) 113% | viability, T/C (second compound 10 µM, first compound 10 µM) 90.5%
> 10 µM: IC50 (second compound 0.0316 µM) | IC50 (second compound 0.1 µM) | IC50 (second compound 0.316 µM) | IC50 (second compound 1 µM) | IC50 (second compound 3.16 µM) | IC50 (second compound 10 µM)

Cn1cnc2c(F)c(Nc3ccc(Br)cc3Cl)c(C(=O)NOCCO)cc21 + CC(Nc1ncnc2nc[nH]c12)c1cc2cccc(Cl)c2c(=O)n1-c1ccccc1
> 3 µM: IC50 (second compound 0.0316 µM) | IC50 (second compound 0.1 µM) | IC50 (second compound 0.316 µM) | IC50 (second compound 1 µM) | IC50 (second compound 3.16 µM) | IC50 (second compound 10 µM)
inactive: viability, T/C (second compound 0.0316 µM, first compound 0.00949 µM) 100% | viability, T/C (second compound 0.0316 µM, first compound 0.03 µM) 103% | viability, T/C (second compound 0.0316 µM, first compound 0.0949 µM) 84.1% | viability, T/C (second compound 0.0316 µM, first compound 0.3 µM) 92.8% | viability, T/C (second compound 0.0316 µM, first compound 0.949 µM) 92% | viability, T/C (second compound 0.0316 µM, first compound 3 µM) 73.7% | viability, T/C (second compound 0.1 µM, first compound 0.00949 µM) 99.3% | viability, T/C (second compound 0.1 µM, first compound 0.03 µM) 82.1% | viability, T/C (second compound 0.1 µM, first compound 0.0949 µM) 85.1% | viability, T/C (second compound 0.1 µM, first compound 0.3 µM) 93% | viability, T/C (second compound 0.1 µM, first compound 0.949 µM) 83.1% | viability, T/C (second compound 0.1 µM, first compound 3 µM) 74% | viability, T/C (second compound 0.316 µM, first compound 0.00949 µM) 111% | viability, T/C (second compound 0.316 µM, first compound 0.03 µM) 90.8% | viability, T/C (second compound 0.316 µM, first compound 0.0949 µM) 92.4% | viability, T/C (second compound 0.316 µM, first compound 0.3 µM) 91.8% | viability, T/C (second compound 0.316 µM, first compound 0.949 µM) 81.5% | viability, T/C (second compound 0.316 µM, first compound 3 µM) 80.3% | viability, T/C (second compound 1 µM, first compound 0.00949 µM) 122% | viability, T/C (second compound 1 µM, first compound 0.03 µM) 106% | viability, T/C (second compound 1 µM, first compound 0.0949 µM) 79.7% | viability, T/C (second compound 1 µM, first compound 0.3 µM) 88.3% | viability, T/C (second compound 1 µM, first compound 0.949 µM) 81.8% | viability, T/C (second compound 1 µM, first compound 3 µM) 82.7% | viability, T/C (second compound 3.16 µM, first compound 0.00949 µM) 81.6% | viability, T/C (second compound 3.16 µM, first compound 0.03 µM) 94.3% | viability, T/C (second compound 3.16 µM, first compound 0.0949 µM) 104% | viability, T/C (second compound 3.16 µM, first compound 0.3 µM) 107% | viability, T/C (second compound 3.16 µM, first compound 0.949 µM) 81.7% | viability, T/C (second compound 3.16 µM, first compound 3 µM) 79.9% | viability, T/C (second compound 10 µM, first compound 0.00949 µM) 92.7% | viability, T/C (second compound 10 µM, first compound 0.03 µM) 94.1% | viability, T/C (second compound 10 µM, first compound 0.0949 µM) 97.9% | viability, T/C (second compound 10 µM, first compound 0.3 µM) 91.5% | viability, T/C (second compound 10 µM, first compound 0.949 µM) 83.8% | viability, T/C (second compound 10 µM, first compound 3 µM) 72%
